# Read-outs that look alike come from different tables or passages of the source.
# Assay: Simulated intestinal fluid (SIF) stability in the presence of various enzymes
# Format: in vitro ADME
# Conditions: 1 μM
# Method: (§1) Studies were carried out in simulated intestinal fluid in the presence of various enzymes. Simulated intestinal fluid was prepared by dissolving 6.8 g of monobasic potassium phosphate in 1.0 L of water. Aliquots of this solution were taken and the pH was adjusted to 6.8. Individual enzymes were then spiked into aliquots for each experiment. A DMSO stock was first prepared for the test article. Aliquots of the DMSO solution were dosed into 700 μL of matrix, which had been pre-warmed to 37° C., at a final test article concentration of 1 μM. […] Samples were stored at 4° C. until the end of the experiment. After the final time point was sampled, the plate was mixed and then centrifuged at 3,000 rpm for 10 minutes. Calibration standards were prepared in matched matrix. […] Analytical conditions are outlined in Appendix 8-1.
# as §1, with “10-1.” for “8-1.”
# Studies were carried out in simulated intestinal fluid in the presence of various enzymes. Simulated intestinal fluid was prepared by dissolving 6.8 g of monobasic potassium phosphate in 1.0 L of water. Aliquots of this solution were taken and the pH was adjusted to 6.8. Individual enzymes were then spiked into aliquots for each experiment. A DMSO stock was first prepared for test article. Aliquots of the DMSO solution were dosed into 700 μL of matrix, which had been pre-warmed to 37° C., at a final test article concentration of 1 μM. […] Samples were stored at 4° C. until the end of experiment. After final time point was sampled, the plate was mixed and then centrifuged at 3,000 rpm for 10 minutes. Calibration standards were prepared in matched matrix. […] Analytical conditions are outlined in Appendix 13-1.
# as §1, with “17-1.” for “8-1.”
# [1] = SIF + Carboxypeptidase A, 0 min
# [2] = SIF + Carboxypeptidase A, 15 min
# [3] = SIF + Carboxypeptidase A, 30 min
# [4] = SIF + Carboxypeptidase A, 60 min
# [5] = SIF + Carboxypeptidase A, 120 min
# [6] = SIF + Carboxypeptidase B, 0 min
# [7] = SIF + Carboxypeptidase B, 15 min
# [8] = SIF + Carboxypeptidase B, 30 min
# [9] = SIF + Carboxypeptidase B, 60 min
# [10] = SIF + Carboxypeptidase B, 120 min
# [11] = simulated intestinal fluid with carboxypeptidase A, pH 6.8, SIF + Carboxypeptidase A, read-out: Half-life
# [12] = simulated intestinal fluid with carboxypeptidase B, pH 6.8, SIF + Carboxypeptidase B, read-out: Half-life
# [13] = simulated intestinal fluid with chymotrypsin, pH 6.8, SIF + Chymotrypsin, read-out: Half-life
# [14] = simulated intestinal fluid with elastase, pH 6.8, SIF + Elastase, read-out: Half-life
# [15] = simulated intestinal fluid with pancreatin, pH 6.8, SIF + Pancreatin, read-out: Half-life
# [16] = simulated intestinal fluid with trypsin, pH 6.8, SIF + Trypsin, read-out: Half-life
structure (smiles),measurement,setting,value
CCCCC/C=C\C/C=C\CCCCCCCC(=O)OCCNC(=O)CCCCCCCCCCCCCCC [Compound I-6],% Remaining of Initial (n = 1),[1],100%
same,% Remaining of Initial (n = 1),[2],77%
same,% Remaining of Initial (n = 1),[3],46%
same,% Remaining of Initial (n = 1),[4],60%
same,% Remaining of Initial (n = 1),[5],56%
same,% Remaining of Initial (n = 1),[6],100%
same,% Remaining of Initial (n = 1),[7],87%
same,% Remaining of Initial (n = 1),[8],93%
same,% Remaining of Initial (n = 1),[9],54%
same,% Remaining of Initial (n = 1),[10],19%
same,% Remaining of Initial (n = 1),"SIF + Chymotrypsin, 0 min",100%
same,% Remaining of Initial (n = 1),"SIF + Chymotrypsin, 15 min",106%
same,% Remaining of Initial (n = 1),"SIF + Chymotrypsin, 30 min",99%
same,% Remaining of Initial (n = 1),"SIF + Chymotrypsin, 60 min",51%
same,% Remaining of Initial (n = 1),"SIF + Chymotrypsin, 120 min",55%
same,% Remaining of Initial (n = 1),"SIF + Elastase, 0 min",100%
same,% Remaining of Initial (n = 1),"SIF + Elastase, 15 min",95%
same,% Remaining of Initial (n = 1),"SIF + Elastase, 30 min",74%
same,% Remaining of Initial (n = 1),"SIF + Elastase, 60 min",64%
same,% Remaining of Initial (n = 1),"SIF + Elastase, 120 min",69%
same,% Remaining of Initial (n = 1),"SIF + Pancreatin, 0 min",100%
same,% Remaining of Initial (n = 1),"SIF + Pancreatin, 15 min",27%
same,% Remaining of Initial (n = 1),"SIF + Pancreatin, 30 min",11%
same,% Remaining of Initial (n = 1),"SIF + Pancreatin, 60 min",3.1%
same,% Remaining of Initial (n = 1),"SIF + Pancreatin, 120 min",1.7%
same,% Remaining of Initial (n = 1),"SIF + Trypsin, 0 min",100%
same,% Remaining of Initial (n = 1),"SIF + Trypsin, 15 min",116%
same,% Remaining of Initial (n = 1),"SIF + Trypsin, 30 min",87%
same,% Remaining of Initial (n = 1),"SIF + Trypsin, 60 min",83%
same,% Remaining of Initial (n = 1),"SIF + Trypsin, 120 min",123%
same,half-life at 1 μM,"simulated intestinal fluid with carboxypeptidase A, pH 6.8, SIF + Carboxypeptidase A, outside the sampled time range, read-out: Half-life, calculated (in parentheses)",134 min
same,half-life at 1 μM,[11],> 120 min
same,half-life at 1 μM,[12],62 min
same,half-life at 1 μM,[13],101 min
same,half-life at 1 μM,"simulated intestinal fluid with elastase, pH 6.8, SIF + Elastase, outside the sampled time range, read-out: Half-life, calculated (in parentheses)",185 min
same,half-life at 1 μM,[14],> 120 min
same,half-life at 1 μM,[15],8.3 min
same,half-life at 1 μM,[16],> 120 min
CCCCCCCCCCCCCCCC(=O)NCCOC(=O)CCC(=O)OCC(O)CO (centres unmarked) [Compound I-9],% Remaining of Initial (n = 1),[1],100%
same,% Remaining of Initial (n = 1),[2],43%
same,% Remaining of Initial (n = 1),[3],15%
same,% Remaining of Initial (n = 1),[4],10%
same,% Remaining of Initial (n = 1),[5],5.5%
same,% Remaining of Initial (n = 1),[6],100%
same,% Remaining of Initial (n = 1),[7],44%
same,% Remaining of Initial (n = 1),[8],14%
same,% Remaining of Initial (n = 1),[9],6.1%
same,% Remaining of Initial (n = 1),[10],4.7%
same,% Remaining of Initial (n = 1),"SIF + Chymotrypsin, 0 min",100%
same,% Remaining of Initial (n = 1),"SIF + Chymotrypsin, 15 min",45%
same,% Remaining of Initial (n = 1),"SIF + Chymotrypsin, 30 min",24%
same,% Remaining of Initial (n = 1),"SIF + Chymotrypsin, 60 min",11%
same,% Remaining of Initial (n = 1),"SIF + Chymotrypsin, 120 min",7.2%
same,% Remaining of Initial (n = 1),"SIF + Elastase, 0 min",100%
same,% Remaining of Initial (n = 1),"SIF + Elastase, 15 min",49%
same,% Remaining of Initial (n = 1),"SIF + Elastase, 30 min",22%
same,% Remaining of Initial (n = 1),"SIF + Elastase, 60 min",10%
same,% Remaining of Initial (n = 1),"SIF + Elastase, 120 min",6.3%
same,% Remaining of Initial (n = 1),"SIF + Pancreatin, 0 min",100%
same,% Remaining of Initial (n = 1),"SIF + Pancreatin, 15 min",35%
same,% Remaining of Initial (n = 1),"SIF + Pancreatin, 30 min",34%
same,% Remaining of Initial (n = 1),"SIF + Pancreatin, 60 min",20%
same,% Remaining of Initial (n = 1),"SIF + Pancreatin, 120 min",13%
same,% Remaining of Initial (n = 1),"SIF + Trypsin, 0 min",100%
same,% Remaining of Initial (n = 1),"SIF + Trypsin, 15 min",67%
same,% Remaining of Initial (n = 1),"SIF + Trypsin, 30 min",49%
same,% Remaining of Initial (n = 1),"SIF + Trypsin, 60 min",22%
same,% Remaining of Initial (n = 1),"SIF + Trypsin, 120 min",12%
same,half-life at 1 μM,[11],12 min
same,half-life at 1 μM,[12],12 min
same,half-life at 1 μM,[13],14 min
same,half-life at 1 μM,[14],15 min
same,half-life at 1 μM,[15],17 min
same,half-life at 1 μM,[16],29 min
CCCCCCCCCCCCCCCC(=O)NCCOC(=O)CCC(=O)OC[C@H]1O[C@@](CO)(O[C@H]2O[C@H](CO)[C@@H](O)[C@H](O)[C@H]2O)[C@@H](O)[C@@H]1O [Compound I-7],% Remaining of Initial (n = 1),[1],100%
same,% Remaining of Initial (n = 1),[2],30%
same,% Remaining of Initial (n = 1),[3],10%
same,% Remaining of Initial (n = 1),[4],4.1%
same,% Remaining of Initial (n = 1),[5],3.9%
same,% Remaining of Initial (n = 1),[6],100%
same,% Remaining of Initial (n = 1),[7],33%
same,% Remaining of Initial (n = 1),[8],14%
same,% Remaining of Initial (n = 1),[9],5.7%
same,% Remaining of Initial (n = 1),[10],2.2%
same,% Remaining of Initial (n = 1),"SIF + Chymotrypsin, 0 min",100%
same,% Remaining of Initial (n = 1),"SIF + Chymotrypsin, 15 min",42%
same,% Remaining of Initial (n = 1),"SIF + Chymotrypsin, 30 min",23%
same,% Remaining of Initial (n = 1),"SIF + Chymotrypsin, 60 min",13%
same,% Remaining of Initial (n = 1),"SIF + Chymotrypsin, 120 min",15%
same,% Remaining of Initial (n = 1),"SIF + Elastase, 0 min",100%
same,% Remaining of Initial (n = 1),"SIF + Elastase, 15 min",44%
same,% Remaining of Initial (n = 1),"SIF + Elastase, 30 min",14%
same,% Remaining of Initial (n = 1),"SIF + Elastase, 60 min",3.8%
same,% Remaining of Initial (n = 1),"SIF + Elastase, 120 min",3.5%
same,% Remaining of Initial (n = 1),"SIF + Pancreatin, 0 min",100%
same,% Remaining of Initial (n = 1),"SIF + Pancreatin, 15 min",40%
same,% Remaining of Initial (n = 1),"SIF + Pancreatin, 30 min",19%
same,% Remaining of Initial (n = 1),"SIF + Pancreatin, 60 min",6.5%
same,% Remaining of Initial (n = 1),"SIF + Pancreatin, 120 min",2.7%
same,% Remaining of Initial (n = 1),"SIF + Trypsin, 0 min",100%
same,% Remaining of Initial (n = 1),"SIF + Trypsin, 15 min",66%
same,% Remaining of Initial (n = 1),"SIF + Trypsin, 30 min",44%
same,% Remaining of Initial (n = 1),"SIF + Trypsin, 60 min",38%
same,% Remaining of Initial (n = 1),"SIF + Trypsin, 120 min",33%
same,half-life at 1 μM,[11],8.8 min
same,half-life at 1 μM,[12],10 min
same,half-life at 1 μM,[13],14 min
same,half-life at 1 μM,[14],12 min
same,half-life at 1 μM,[15],12 min
same,half-life at 1 μM,[16],50 min
CCCCCCCCCCCCCCCC(=O)NCCOC(=O)CCC(=O)OCC(COC(=O)CCC)OC(=O)CCC (centres unmarked) [Compound I-11],% Remaining of Initial (n = 1),[1],100%
same,% Remaining of Initial (n = 1),[2],73%
same,% Remaining of Initial (n = 1),[3],78%
same,% Remaining of Initial (n = 1),[4],42%
same,% Remaining of Initial (n = 1),[5],18%
same,% Remaining of Initial (n = 1),[6],100%
same,% Remaining of Initial (n = 1),[7],68%
same,% Remaining of Initial (n = 1),[8],50%
same,% Remaining of Initial (n = 1),[9],33%
same,% Remaining of Initial (n = 1),[10],9.6%
same,% Remaining of Initial (n = 1),"SIF + Chymotrypsin, 0 min",100%
same,% Remaining of Initial (n = 1),"SIF + Chymotrypsin, 15 min",84%
same,% Remaining of Initial (n = 1),"SIF + Chymotrypsin, 30 min",63%
same,% Remaining of Initial (n = 1),"SIF + Chymotrypsin, 60 min",42%
same,% Remaining of Initial (n = 1),"SIF + Chymotrypsin, 120 min",21%
same,% Remaining of Initial (n = 1),"SIF + Elastase, 0 min",100%
same,% Remaining of Initial (n = 1),"SIF + Elastase, 15 min",70%
same,% Remaining of Initial (n = 1),"SIF + Elastase, 30 min",50%
same,% Remaining of Initial (n = 1),"SIF + Elastase, 60 min",33%
same,% Remaining of Initial (n = 1),"SIF + Elastase, 120 min",17%
same,% Remaining of Initial (n = 1),"SIF + Pancreatin, 0 min",100%
same,% Remaining of Initial (n = 1),"SIF + Pancreatin, 15 min",<1.0%
same,% Remaining of Initial (n = 1),"SIF + Pancreatin, 30 min",<1.0%
same,% Remaining of Initial (n = 1),"SIF + Pancreatin, 60 min",<1.0%
same,% Remaining of Initial (n = 1),"SIF + Pancreatin, 120 min",<1.0%
same,% Remaining of Initial (n = 1),"SIF + Trypsin, 0 min",100%
same,% Remaining of Initial (n = 1),"SIF + Trypsin, 15 min",77%
same,% Remaining of Initial (n = 1),"SIF + Trypsin, 30 min",62%
same,% Remaining of Initial (n = 1),"SIF + Trypsin, 60 min",45%
same,% Remaining of Initial (n = 1),"SIF + Trypsin, 120 min",23%
same,half-life at 1 μM,[11],53 min
same,half-life at 1 μM,[12],34 min
same,half-life at 1 μM,[13],50 min
same,half-life at 1 μM,[14],37 min
same,half-life at 1 μM,[15],< 1 min
same,half-life at 1 μM,[16],53 min

# Source: US11547681B2, “N-acylethanolamide derivatives and uses thereof” (ELIEM THERAPEUTICS, INC., priority 2016, dated 2023)
